Data published in BindingDB's records for doi:10.1016/j.bmc.2021.116498 (Kyushu University, 2021).
Numbered stars: 1 amine (or outer) side, 2 acyl side, 3 side chain; on linkers, the order of the positions; unused ones are H or OH. Square brackets hold non-standard residues; d marks the D form. Peptide text beside a SMILES is read from it. X2 = O=C([C@H](Cc1c(F)cc(F)c(F)c1F)N[*:1])[*:2]; X3 = O=C([C@H](Cc1cc(F)c(F)c(F)c1F)N[*:1])[*:2]; Cha = N[C@@H](CC1CCCCC1)C(=O)O

Experiment: Activation of PAR-1 in human platelet-rich plasma assessed as induction of platelet aggregation by turbidimetric method

Molecule	EC50
CC(C)C[C@H](NC(=O)[C@H](CC(C)C)NC(=O)[C@H](CC1CCCCC1)NC(=O)[C@@H](N)CO)C(=O)N[C@@H](CCCNC(=N)N)C(=O)N[C@@H](CC(N)=O)C(=O)N1CCC[C@H]1C(N)=O (H-S[Cha]LLRNP-NH2)	99 µM
CC(C)C[C@H](NC(=O)[C@H](CC(C)C)NC(=O)[C@H](Cc1cc(F)c(F)c(F)c1F)NC(=O)[C@@H](N)CO)C(=O)N[C@@H](CCCNC(=N)N)C(=O)N[C@@H](CC(N)=O)C(=O)N1CCC[C@H]1C(N)=O (H-S[X3]LLRNP-NH2)	50 µM
CC(C)C[C@H](NC(=O)[C@H](CC(C)C)NC(=O)[C@H](Cc1c(F)cc(F)c(F)c1F)NC(=O)[C@@H](N)CO)C(=O)N[C@@H](CCCNC(=N)N)C(=O)N[C@@H](CC(N)=O)C(=O)N1CCC[C@H]1C(N)=O (H-S[X2]LLRNP-NH2)	8.9 µM
H-SFLLRNP-NH2 [1-{(S)-2-[(S)-2-((S)-2-{(S)-2-[(S)-2-((S)-2-Amino-3-hydroxy-propionylamino)-3-phenyl-propionylamino]-4-methyl-pentanoylamino}-4-methyl-pentanoylamino)-5-guanidino-pentanoylamino]-3-carbamoyl-propionyl}-pyrrolidine-2-carboxylic acid amide]	3 µM
